Experimental findings from patent US20160083391A1, “TRICYCLIC PIPERAZINE DERIVATIVE” (Sunovion Pharmaceuticals Inc., priority 2014, published 2016) are described below.

Structures are written as SMILES.

The subject of the assay is PDE1. Description: In vitro HTRF PDE1 inhibition assay. It is filed as biochemical. The settings on record: HTRF cGMP assay, 100 nM cyclic GMP, PDE (1A3, 1B or 1C) with calmodulin, 45 minutes at 37° C.; isoform of the tabulated values not stated. The procedure, abridged:
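Activities are given as IC50 bands (<1, 1-10, >10 μM) derived from a 665/615 nm time-resolved FRET readout after d2-cGMP/anti-cGMP cryptate detection. Enzymes PDE1A3, 1B or 1C plus calmodulin were incubated 45 min at 37 °C with 100 nM cGMP, 1% DMSO, CaCl2/MgCl2 Tris buffer pH 7.4.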

In general, IC50 refers to the concentration that gives 50% inhibition. Read a low IC50 as inhibition by little substance.

In the case of `O=c1c2nnc(C3CCCC3)n2nc2n1CCN(Cc1ccc(Cl)cc1)C2` [Compound I-132, 7-(4-Chlorobenzyl)-3-cyclopentyl-8,9-dihydro-6H-pyrazino[2,1-c][1,2,4]triazolo[3,4-f][1,2,4]triazin-11(7H)-one], the IC50 is less than 1 µM.
Molecule `COc1ccc(CN2CCn3c(nn4c(C5CCCC5)ncc4c3=O)C2)cc1` [Compound I-133, 3-Cyclopentyl-7-(4-methoxybenzyl)-8,9-dihydro-6H-imidazo[5,1-f]pyrazino[2,1-c][1,2,4]triazin-11(7H)-one] came in with an IC50 of less than 1 µM.
As for `O=c1c2cnc(C3CCCC3)n2nc2n1CCN(Cc1ccc(Cl)cc1)C2` [Compound I-134, 7-(4-Chlorobenzyl)-3-cyclopentyl-8,9-dihydro-6H-imdazo[5,1-f]pyrazino[2,1-c][1,2,4]triazin-11(7H)-one], the figure is less than 1 µM; as for `CC(C)n1ncc2c(=O)n3c(nc21)CN(Cc1cccnc1)CC3` [Compound I-135, 1-Isopropyl-8-(pyridin-3-ylmethyl)-6,7,8,9-tetrahydropyrazino[1,2-a]pyrazolo[3,4-d]pyrimidin-4(1H)-one], less than 1 µM.
Regarding `CC(C)n1ncc2c(=O)n3c(nc21)CN(Cc1ccncc1)CC3` [Compound I-136, 1-Isopropyl-8-(pyridin-4-ylmethyl)-6,7,8,9-tetrahydropyrazino[1,2-a]pyrazolo[3,4-d]pyrimidin-4(1H)-one], the IC50 lay in the range of 1 to 10 µM.
As for `CC(C)n1ncc2c(=O)n3c(nc21)CN(Cc1cccc(F)c1)CC3` [Compound I-137, 8-(3-Fluorobenzyl)-1-isopropyl-6,7,8,9-tetrahydropyrazino[1,2-a]pyrazolo[3,4-d]pyrimidin-4(1H)-one], the figure is 1 to 10 µM; as for `CC(C)n1ncc2c(=O)n3c(nc21)CN(Cc1ccc(F)cc1)CC3` [Compound I-138, 8-(4-Fluorobenzyl)-1-isopropyl-6,7,8,9-tetrahydropyrazino[1,2-a]pyrazolo[3,4-d]pyrimidin-4(1H)-one], more than 10 µM.
As to `COc1cc(CN2CCn3c(nc4c(cnn4C(C)C)c3=O)C2)ccc1F` [Compound I-139, 8-(4-Fluoro-3-methoxybenzyl)-1-isopropyl-6,7,8,9-tetrahydropyrazino[1,2-a]pyrazolo[3,4-d]pyrimidin-4(1H)-one], the 50% inhibitory concentration (IC50) was more than 10 µM.
As to `COc1ccc(CN2CCn3c(nc4c(cnn4C(C)C)c3=O)C2)cc1F` [Compound I-140, 8-(3-Fluoro-4-methoxybenzyl)-1-isopropyl-6,7,8,9-tetrahydropyrazino[1,2-a]pyrazolo[3,4-d]pyrimidin-4(1H)-one], the IC50 was less than 1 µM.
Turning to `CCOc1cccc(N2CCn3c(nc4c(cnn4C(C)C)c3=O)C2)c1` [Compound I-141, 8-(3-Ethoxyphenyl)-1-isopropyl-6,7,8,9-tetrahydropyrazino[1,2-a]pyrazolo[3,4-d]pyrimidin-4(1H)-one], the IC50 is less than 1 µM.
The molecule `CC(C)n1ncc2c(=O)n3c(nc21)CN(c1ccc(F)cc1)CC3` [Compound I-142, 8-(4-Fluorophenyl)-1-isopropyl-6,7,8,9-tetrahydropyrazino[1,2-a]pyrazolo[3,4-d]pyrimidin-4(1H)-one] yielded an IC50 of less than 1 µM.
As to `CC(C)n1ncc2c(=O)n3c(nc21)CN(c1cccnc1)CC3` [Compound I-143, 1-Isopropyl-8-(pyridin-3-yl)-6,7,8,9-tetrahydropyrazino[1,2-a]pyrazolo[3,4-d]pyrimidin-4(1H)-one], the IC50 fell in the range of 1 to 10 µM.
The molecule `COc1cncc(N2CCn3c(nc4c(cnn4C(C)C)c3=O)C2)c1` [Compound I-144, 1-Isopropyl-8-(5-methoxypyridin-3-yl)-6,7,8,9-tetrahydropyrazino[1,2-a]pyrazolo[3,4-d]pyrimidin-4(1H)-one] showed an IC50 of less than 1 µM.
On to `CC(C)n1ncc2c(=O)n3c(nc21)CN(c1ccncc1)CC3` [Compound I-145, 1-Isopropyl-8-(pyridin-4-yl)-6,7,8,9-tetrahydropyrazino[1,2-a]pyrazolo[3,4-d]pyrimidin-4(1H)-one], for which the IC50 is less than 1 µM.
Molecule `COc1ccc(CN2CCCn3c(nc4c(cnn4C(C)C)c3=O)C2)cc1` [Compound I-156, 1-Isopropyl-9-(4-methoxybenzyl)-7,8,9,10-tetrahydro-1H-pyrazolo[3′,4′:4,5]pyrimido[1,2-a][1,4]diazepin-4(6H)-one] registered an IC50 of 1 to 10 µM.
As for `COc1ccc(CN2CCc3nc4c(cnn4C(C)C)c(=O)n3CC2)cc1` [Compound I-157, 1-Isopropyl-8-(4-methoxybenzyl)-7,8,9,10-tetrahydro-1H-pyrazolo[3′,4′:4,5]pyrimido[1,2-d][1,4]diazepin-4(6H)-one], the figure is more than 10 µM; as for `COCCn1ncc2c(=O)n3c(nc21)CN(Cc1ccc(OC)cc1)CC3` [Compound I-158, 8-(4-Methoxybenzyl)-1-(2-methoxyethyl)-6,7,8,9-tetrahydropyrazino[1,2-a]pyrazolo[3,4-d]pyrimidin-4(1H)-one], 1 to 10 µM; as for `COCCn1ncc2c(=O)n3c(nc21)CN(Cc1ccc(Cl)cc1)CC3` [Compound I-159, 8-(4-Chlorobenzyl)-1-(2-methoxyethyl)-6,7,8,9-tetrahydropyrazino[1,2-a]pyrazolo[3,4-d]pyrimidin-4(1H)-one], 1 to 10 µM.
As to `COCCn1ncc2c(=O)n3c(nc21)CN(Cc1ccc(Cl)c(Cl)c1)CC3` [Compound I-160, 8-(3,4-Dichlorobenzyl)-1-(2-methoxyethyl)-6,7,8,9-tetrahydropyrazino[1,2-a]pyrazolo[3,4-d]pyrimidin-4(1H)-one], the IC50 is more than 10 µM.
The figure for `COCCn1ncc2c(=O)n3c(nc21)CN(Cc1cccc(OC)c1)CC3` [Compound I-161, 8-(3-Methoxybenzyl)-1-(2-methoxyethyl)-6,7,8,9-tetrahydropyrazino[1,2-a]pyrazolo[3,4-d]pyrimidin-4(1H)-one] is more than 10 µM; for `COCCn1ncc2c(=O)n3c(nc21)CN(Cc1cccc(Cl)c1)CC3` [Compound I-162, 8-(3-Chlorobenzyl)-1-(2-methoxyethyl)-6,7,8,9-tetrahydropyrazino[1,2-a]pyrazolo[3,4-d]pyrimidin-4(1H)-one] it is 1 to 10 µM; for `COCCn1ncc2c(=O)n3c(nc21)CN(Cc1ccc2c(c1)OCO2)CC3` [Compound I-163, 8-(Benzo[d][1.3]dioxol-5-ylmethyl)-1-(2-methoxyethyl)-6,7,8,9-tetrahydropyrazino[1,2-a]pyrazolo[3,4-d]pyrimidin-4(1H)-one] it is more than 10 µM.
Regarding `CCCn1ncc2c(=O)n3c(nc21)CN(Cc1ccc(OC)cc1)CC3` [Compound I-164, 8-(4-Methoxybenzyl)-1-propyl-6,7,8,9-tetrahydropyrazino[1,2-a]pyrazolo[3,4-d]pyrimidin-4(1H)-one], the IC50 lay in the range of 1 to 10 µM.
As to `CCCn1ncc2c(=O)n3c(nc21)CN(Cc1ccc(Cl)c(Cl)c1)CC3` [Compound I-165, 8-(3,4-Dichlorobenzyl)-1-propyl-6,7,8,9-tetrahydropyrazino[1,2-a]pyrazolo[3,4-d]pyrimidin-4(1H)-one], the IC50 lay within 1 to 10 µM.
Turning to `CCCn1ncc2c(=O)n3c(nc21)CN(Cc1cccc(Cl)c1)CC3` [Compound I-166, 8-(3-Chlorobenzyl)-1-propyl-6,7,8,9-tetrahydropyrazino[1,2-a]pyrazolo[3,4-d]pyrimidin-4(1H)-one], the IC50 is 1 to 10 µM.
As for `CCCn1ncc2c(=O)n3c(nc21)CN(c1ccc(Cl)cc1)CC3` [Compound I-167, 8-(4-Chlorophenyl)-1-propyl-6,7,8,9-tetrahydropyrazino[1,2-a]pyrazolo[3,4-d]pyrimidin-4(1H)-one], the figure is less than 1 µM.
`CCCn1ncc2c(=O)n3c(nc21)CN(c1ccc(Cl)c(Cl)c1)CC3` [Compound I-168, 8-(3,4-Dichlorophenyl)-1-propyl-6,7,8,9-tetrahydropyrazino[1,2-a]pyrazolo[3,4-d]pyrimidin-4(1H)-one] registered an IC50 of 1 to 10 µM.
In the case of `CC(C)n1ncc2c(=O)n3c(nc21)CN(Cc1ccc(Cl)c(Cl)c1)CC3` [Compound I-169, 8-(3,4-Dichlorobenzyl)-1-isopropyl-6,7,8,9-tetrahydropyrazino[1,2-a]pyrazolo[3,4-d]pyrimidin-4(1H)-one], the IC50 was less than 1 µM.
In turn, `CC(C)n1ncc2c(=O)n3c(nc21)CN(Cc1ccc2c(c1)OCO2)CC3` [Compound I-170, 8-(Benzo[d][1,3]dioxol-5-ylmethyl)-1-isopropyl-6,7,8,9-tetrahydropyrazino[1,2-a]pyrazolo[3,4-d]pyrimidin-4(1H)-one] displayed an IC50 of 1 to 10 µM.
Turning to `CC(C)n1ncc2c(=O)n3c(nc21)CN(c1ccc(Cl)c(Cl)c1)CC3` [Compound I-171, 8-(3,4-Dichlorophenyl)-1-isopropyl-6,7,8,9-tetrahydropyrazino[1,2-a]pyrazolo[3,4-d]pyrimidin-4(1H)-one], the IC50 was less than 1 µM.
In turn, `CCOc1cccc(N2CCn3c(nn4c(C(C)C)ncc4c3=O)C2)c1` [Compound I-173, 7-(3-Ethoxyphenyl)-3-isopropyl-8,9-dihydro-6H-imidazo[5,1-f]pyrazino[2,1-c][1,2,4]triazin-11(7H)-one] came in with an IC50 of less than 1 µM.
`COc1cccc(N2CCn3c(nn4c(C(C)C)ncc4c3=O)C2)c1` [Compound I-174, 3-Isopropyl-7-(3-methoxyphenyl)-8,9-dihydro-6H-imidazo[5,1-f]pyrazino[2,1-c][1,2,4]triazin-11(7H)-one] displayed an IC50 of less than 1 µM.
`CC(C)c1ncc2c(=O)n3c(nn12)CN(c1ccc(Cl)cc1)CC3` [Compound I-175, 7-(4-Chlorophenyl)-3-isopropyl-8,9-dihydro-6H-imidazo[5,1-f]pyrazino[2,1-c][1,2,4]triazin-11(7H)-one] yielded an IC50 of less than 1 µM.
The figure for `CC(C)c1ncc2c(=O)n3c(nn12)CN(c1ccc(F)cc1)CC3` [Compound I-176, 7-(4-Fluorophenyl)-3-isopropyl-8,9-dihydro-6H-imidazo[5,1-f]pyrazino[2,1-c][1,2,4]triazin-11(7H)-one] is less than 1 µM.
